Measurements: paper PMC10487843, “Evaluation of Anticancer and Anti-Inflammatory Activities of Some Synthetic Rearranged Abietanes” (International Journal of Molecular Sciences, 2023)
≈ marks a conversion by molar mass, not a printed value. Read-outs that look alike come from different tables or passages of the source.

Tests used:
[1] = test system: NO release in LPS-stimulated RAW 264.7 macrophage cells; test: Inhibition of nitric oxide production (Griess nitrite assay) in LPS-activated RAW 264.7 macrophages; format: cell-based, murine; conditions: LPS-stimulated RAW 264.7, 48 h; for NO inhibition: ¾ IC50 concentration; for IC50: Mus musculus, RAW264.7
Description: To evaluate the anti-inflammatory activity of the rearranged abietanes (5, 7, 17, and 19) along with their precursor 13, we conducted experiments on RAW 264.7 macrophage cells, a well-known model for screening anti-inflammatory compounds. The macrophages were stimulated with LPS to induce the maximum release of nitric oxide (NO) during the inflammatory response. Subsequently, the different compounds were incubated with the cells at sub-cytotoxic concentrations for 48 h (Figure 9). Next, we determined the concentration of nitrites in the culture medium, which was proportional to the amount of NO release.
Nitrite production was analyzed using the Griess reaction method. The concentration of nitrite was used as an indication of nitric oxide (NO) production. RAW 264.7 cells were seeded at 6 × 10^4 cells/well in 24-well cell culture plates, supplemented with 10 μg/mL of lipopolysaccharide (LPS). […] The Griess reaction was conducted by mixing 150 μL of supernatant test samples or sodium nitrite standard (0–120 μM) with 25 μL of Griess reagent A (0.1% n-(1-naphthyl) ethylenediamine dihydrochloride) and 25 μL of Griess reagent B (1% sulfanilamide in 5% of phosphoric acid) in a 96-well plate. The mixture was incubated at room temperature for 15 min, after which the absorbance was measured at 540 nm using an ELISA plate reader (Tecan Sunrise MR20–301, TECAN, Grödig, Austria). To determine the concentration of nitrite in each sample supernatant, the absorbance was referenced to the nitrite standard curve. To determine the percentage of NO production, the increase between the negative control (untreated cells) and the positive control (cells only with 10 μg/mL of LPS) was assigned 100%.

[2] = test system: HT29 cells; test: HT29 cell cycle analysis (PI flow cytometry); format: cell-based, human; conditions: HT29, 72 h
Description: Flow cytometry was employed to assess the impact of compounds 5 and 13 on the cell cycle profiles of HT29 cells after 72 h of treatment; by using propidium iodide (PI) incorporation, whose fluorescence directly correlated with DNA content, we analyzed the distribution of cells in different cell cycle phases.
The amount of DNA in the different phases of the cell cycle (G0/G1, S, and G2/M) was quantified using flow cytometry after staining with propidium iodide (PI). HT29 cells were seeded at a density of 5 × 10^4 cells per well in 24-well plates containing 1.5 mL of culture medium. […] Next, the cells were washed twice with PBS, trypsinized, and resuspended in 1 × TBS (10 mM Tris and 150 mM NaCl). After this, Vindelov buffer (100 mM Tris, 100 mM NaCl, 10 mg/mL Rnase, 1 mg/mL PI, and 0.1% Triton x-100, pH 8) was added. Finally, the cells were kept on ice and stained with 20 μL of 1 mg/mL PI solution before being measured. Each experiment analyzed approximately 10 × 10^3 cells. The experiments were performed twice, each with three replications per assay. The samples were analyzed using a flow cytometer, and the number of cells in each stage of the cell cycle was estimated by […] cell sorting (FACS) at 488 nm in an Epics XL flow cytometer (Coulter Corporation, Hialeah, FL, USA).

[3] = test system: human colon adenocarcinoma (HT29); test: MTT cell viability assay, HT29; format: cell-based; conditions: for IC80: 80% growth inhibition
Excerpt: In this study, we employed the MTT (3-(4,5-dimethyl thiazol-2-yl)-2,5-diphenyltetrazolium bromide) colorimetric assay to evaluate the cytotoxic activity of selected abietanes (compounds 5, 7, 13, 17, and 19) against three tumor cell lines: human colon adenocarcinoma (HT29), human hepatocarcinoma (HepG2), and murine melanoma (B16–F10). The MTT assay relied on the conversion of MTT to formazan by viable cells, with the formazan concentration proportional to the number of viable cells. The concentrations required for 50 and 80% growth inhibition (IC50 and IC80) were determined for each compound.
The human colorectal adenocarcinoma cell line HT29 (ECACC no. 9172201; ATCC no. HTB-38), the human hepatocarcinoma cell line HepG2 (ECACC no. 85011430), the mouse melanoma cells B16–F10 (ATCC no. CRL-6475), and the murine monocyte/macrophage like RAW 264.7 cell line (ATCC no, TIB-71) were obtained from the cell bank of the University of Granada, Spain. The tumor cell lines were cultured in DMEM (Dulbecco’s modified Eagle’s medium) supplemented with 2 mM glutamine, 10% heat-inactivated FCS (fetal calf serum), and 50 μg/mL of gentamicin (for all cancer cell lines). The RAW 264.7 cell line was cultured in RPMI1640 medium, supplemented with 2 mM glutamine, 10% heat-inactivated FCS, and 50 μg/mL of gentamicin. All cell lines were incubated at 37 °C, in an atmosphere of 5% CO2 and 95% humidity. The culture media were changed every 48 h, and the confluent cultures were separated with a trypsin solution (0.25% EDTA). In all experiments, monolayer cells were grown to 80–90% confluence in sterile cell culture flasks.
The effects of the compounds on the cell viability were established using the MTT method (Sigma, St. Louis, MO, USA). The cytotoxicity of the compounds was assessed by measuring the absorbance of MTT dye staining of metabolically competent cells. The cells were cultivated in 96-well plates at 6.0 × 10^3 cells/mL for the HT29 and RAW 264.7 cell lines, at 5.0 × 10^3 cells/mL for B16–F10 cells, and 15.0 × 10^3 cells/mL for the HepG2 cell line, with a final volume of 200 μL per well being incubated with the different products (0–100 μg/mL). After 72 h, 100 μL of MTT solution (0.5 mg/mL) in 50% of PBS and 50% of the medium was added to each well. Following incubation for 1.5 h, formazan was resuspended in 100 μL of DMSO, and each concentration was tested in triplicate. The cell viability relative to the untreated control cells was determined by measuring the absorbance at 570 nm using an ELISA plate reader (Tecan Sunrise MR20–301, TECAN, Grödig, Austria).

[4] = Homo sapiens, HT-29, 72 h, read-out: IC50

| IC50 [3, 4] | IC50 ([3]; 72 h, listed as Precursor (13)) | Structure (SMILES) | NO inhibition [1] | IC50 [1] | increase in the cell population in the S phase compared with the control ([2]; IC50 dose) | increase in the cell population in the S phase compared with the control ([2]; IC80 dose) | IC80 ([3]; Homo sapiens, HT-29, 72 h) | increase in the cell population in the S phase compared with the control ([2]; regardless of the administered dose (IC50 and IC80)) |
| --- | --- | --- | --- | --- | --- | --- | --- | --- |
| 6.69 ± 1.18 µg/mL (≈ 21.6 µM) |  | CC(C)C1=CC2=C(C(=O)C1=O)C1=CC(=O)CC(C)(C)[C@@]1(C)C=C2 [Compound 5, Pygmaeocin B] | 100% | 0.033 ± 0.0008 µg/mL (≈ 0.106 µM) | 4% | 10% | 9.73 ± 1.18 µg/mL (≈ 31.3 µM) |  |
| 2.7 ± 0.8 µg/mL (≈ 8.99 µM) | 2.67 ± 0.82 µg/mL (≈ 8.89 µM) | CC(C)C1=CC2=C(C(=O)C1=O)[C@@]1(C)CCCC(C)(C)[C@@H]1CC2 [Compound 13] | 99.6% | 2.03 ± 0.09 µg/mL (≈ 6.76 µM) |  |  | 5.19 ± 0.68 µg/mL (≈ 17.3 µM) | 10% |
